Laboratory results taken from the Deep4Chem optical property database.
Where “and” joins values, the source holds several entries; their conditions need not be identical. Identical values can stand only once. Values belong to the compound of their own block, whether it stands above or below them.

Test: solvent given as SMILES

Compound: CCC1(CC)c2ccccc2-c2ccc(C#Cc3ccc4ccc5cccc6ccc3c4c56)cc21
absorption maximum (in C1CCCCC1): 401 nm | absorption maximum (in C1CCOC1): 402 nm | absorption maximum (in CC#N): 399 nm | absorption maximum (in CCOC(C)=O): 400 nm | absorption maximum (in CN(C)C=O): 404 nm | absorption maximum (in Cc1ccccc1): 405 nm | absorption maximum (in ClC(Cl)Cl): 404 nm | absorption maximum (in ClCCl): 403 nm

Compound: CCCCCCCCCCCCn1cccc1/C=C/c1cc(OCCCC)c(/C=C/c2cccn2CCCCCCCCCCCC)cc1OCCCC
absorption maximum (in Cc1ccccc1): 411 nm

Compound: Cc1ccc(/C=C/c2nc(-c3ccc([N+](=O)[O-])cc3)[nH]c2/C=C/c2ccc(C)cc2)cc1
absorption maximum (in ClCCl): 445 nm

Compound: CCN(CC)c1ccc(/C=C/c2ccc(-c3ccc(/C=C/c4ccc(N(CC)CC)cc4)s3)s2)cc1
absorption maximum (in Cc1ccccc1): 467.9 nm

Compound: c1ccc(-c2ccc(-c3ccc(-n4c5ccccc5c5ccccc54)cc3)c3nsnc23)cc1
absorption maximum (in C1CCOC1): 394 nm | absorption maximum (in CC(C)=O): 382 nm | absorption maximum (in CCCCCC): 394 nm | absorption maximum (in CCOCC): 392 nm

Compound: CCOC(=O)c1cc2ccc3ccccc3c2c(C#N)c1N
absorption maximum (in Cc1ccccc1): 435 nm

Compound: CC(=O)O[B-]1(OC(C)=O)OC(/C=C/C=C/c2ccccc2)=CC(/C=C/C=C/c2ccccc2)=[O+]1
absorption maximum (in C1CCOC1): 468 nm | absorption maximum (in CC#N): 472 nm | absorption maximum (in CC(C)=O): 468 nm | absorption maximum (in CS(C)=O): 478 nm | absorption maximum (in Cc1ccccc1): 470 nm | absorption maximum (in ClC(Cl)Cl): 474 nm | absorption maximum (in ClCCl): 474 nm

Compound: c1ccc(-c2nn(-c3ccccc3)c3nc4ccc(N(c5ccccc5)c5ccccc5)cc4cc23)cc1
absorption maximum (in C1CCCCC1): 452.08 nm | absorption maximum (in C1CCOC1): 450.05 nm | absorption maximum (in CC#N): 447.03 nm | absorption maximum (in CC(C)=O): 448.03 nm | absorption maximum (in CCCCCl): 451.06 nm | absorption maximum (in CCCCOCCCC): 451.06 nm | absorption maximum (in CN(C)C=O): 450.05 nm

Compound: COC(=O)c1ccc(C2=C3C=c4sc(-c5cccs5)cc4=[N+]3[B-](F)(F)n3c2cc2sc(-c4cccs4)cc23)cc1
absorption maximum (in ClCCl): 684 nm

Compound: c1ccc(-c2nc(-c3ccccc3)nc(-c3ccc(-c4ccc(N5c6ccccc6[Si](c6ccccc6)(c6ccccc6)c6ccccc65)cc4)cc3)n2)cc1
absorption maximum (in Cc1ccccc1): 308 nm

Compound: COc1ccccc1-c1nc2c3ccccc3c3ccccc3c2o1
absorption maximum (in Cc1ccccc1): 364 nm

Compound: CCOC(=O)CN1C(=O)C2=C(c3ccc(N4CCCCC4)cc3)N(CC(=O)OCC)C(=O)C2=C1c1ccccc1
absorption maximum (in CC#N): 500 nm | absorption maximum (in CS(C)=O): 516 nm | absorption maximum (in Cc1ccccc1): 499 nm

Compound: COC(=O)C(Cc1ccc2oc(-c3ccc(N(c4ccccc4)c4ccccc4)cc3)nc2c1)NC(=O)OC(C)(C)C (configuration not stated)
absorption maximum (in C1CCCCC1): 361.7 nm | absorption maximum (in C1CCOC1): 362.85 nm | absorption maximum (in C1COCCO1): 363.1 nm | absorption maximum (in CC1CCCCC1): 361.35 nm | absorption maximum (in CC1COC(=O)O1): 361.45 nm | absorption maximum (in CC#N): 360.5 nm | absorption maximum (in CC(C)=O): 360.45 nm | absorption maximum (in CC(C)O): 365.45 nm | absorption maximum (in CC(O)CO): 368.35 nm | absorption maximum (in CCCCCC): 359.8 nm | absorption maximum (in CCCCCCCC): 361.55 nm | absorption maximum (in CCCCCO): 367.75 nm | absorption maximum (in CCCCO): 367.1 nm | absorption maximum (in CCO): 366.3 nm | absorption maximum (in CCOC(C)=O): 360.5 nm | absorption maximum (in CN(C)C=O): 363 nm | absorption maximum (in CO): 365.05 nm | absorption maximum (in COCCOC): 362.55 nm | absorption maximum (in CS(C)=O): 364 nm | absorption maximum (in ClC(Cl)Cl): 369.25 nm | absorption maximum (in ClCCl): 366.18 nm | absorption maximum (in N#Cc1ccccc1): 368.3 nm | absorption maximum (in NC=O): 367.45 nm | absorption maximum (in O): 367 nm | absorption maximum (in OCC(F)(F)F): 366.1 nm

Compound: CC(C)(C)c1ccc(Oc2cc3c4c(cc(Oc5ccc(C(C)(C)C)cc5)c5c6c(Oc7ccc(C(C)(C)C)cc7)cc7c8c(cc(Oc9ccc(C(C)(C)C)cc9)c(c2c45)c86)C(=O)N(Cc2ccccc2)C7=O)C(=O)N(Cc2ccccc2)C3=O)cc1
absorption maximum (in ClC(Cl)Cl): 581 nm

Compound: CCN(CC)c1ccc(OC)c(C=O)c1
absorption maximum (in CC#N): 412 nm | absorption maximum (in CC(C)O): 418 nm | absorption maximum (in CCCCCC): 400 nm | absorption maximum (in CCOC(C)=O): 406 nm | absorption maximum (in CO): 420 nm | absorption maximum (in CS(C)=O): 424 nm | absorption maximum (in Cc1ccccc1): 411 nm | absorption maximum (in ClCCl): 415 nm

Compound: O=S(=O)(c1ccc(-c2ccc(-c3nc4c5ccccc5c5ccccc5c4n3-c3ccccc3)cc2)cc1)c1ccc(-c2ccc(-c3nc4c5ccccc5c5ccccc5c4n3-c3ccccc3)cc2)cc1
absorption maximum (in C1CCOC1): 368 nm | absorption maximum (in CC#N): 368 nm | absorption maximum (in CC(C)=O): 368 nm | absorption maximum (in CC(C)OC(C)C): 368 nm | absorption maximum (in CCCCCC): 368 nm | absorption maximum (in CCCCOCCCC): 368 nm | absorption maximum (in CCN(CC)CC): 368 nm | absorption maximum (in CCOC(C)=O): 368 nm | absorption maximum (in CCOCC): 368 nm | absorption maximum (in CN(C)C=O): 368 nm | absorption maximum (in ClC(Cl)Cl): 368 nm | absorption maximum (in ClCCl): 368 nm

Compound: O=S(=O)([O-])c1ccc2c([O-])cc(S(=O)(=O)[O-])cc2c1
absorption maximum (in O): 350 nm

Compound: CN(C)c1ccc(/C=C/C(=O)c2ccc(Cl)cc2)cc1
absorption maximum (in C1CCOC1): 413 nm | absorption maximum (in CC#N): 419 nm | absorption maximum (in CC(=O)O): 430 nm | absorption maximum (in CC(C)=O): 418 nm | absorption maximum (in CCO): 429 nm | absorption maximum (in CN(C)C=O): 427 nm | absorption maximum (in CO): 428 nm | absorption maximum (in Cc1ccccc1): 416 nm | absorption maximum (in ClC(Cl)Cl): 426 nm | absorption maximum (in c1ccccc1): 420 nm

Next, values leading:

absorption maximum (in CCCCCC): 536 nm
Compound: CC(C)[Si](C#Cc1c2ccccc2c(C#C[Si](C(C)C)(C(C)C)C(C)C)c2nc3c(ccc4cc5ccccc5cc43)nc12)(C(C)C)C(C)C

absorption maximum (in CN(C)C=O): 376 nm
Compound: CCN(CC)c1ccc(-c2nc(Oc3ccc(-c4nc5ccccc5[nH]4)cc3)nc(Oc3ccc(-c4nc5ccccc5[nH]4)cc3)n2)cc1

absorption maximum (in CS(C)=O): 556 nm
Compound: CCCCN1/C(=C/C=C/C2=[N+](C)c3ccccc3C2(C)C)C(C)(C)c2cc(Br)ccc21

absorption maximum (in CCO): 354 nm
Compound: O=C(c1cc(F)c(N2CCCCC2)cc1F)c1cc(F)c(N2CCCCC2)cc1F

absorption maximum (in CC#N): 377 nm
Compound: COc1ccc(-c2csc(/C(C#N)=C/c3ccc(Cl)cc3Cl)n2)cc1

absorption maximum (in C1CCCCC1): 380.4 nm
Compound: COC(=O)c1c(C(=O)OC)c2ccc(C)nn2c1C

absorption maximum (in ClCCl): 411 nm
Compound: CCCc1cc2c(s1)-c1cc3c(cc1NB2c1ccccc1)-c1sc(CCC)cc1B(c1ccccc1)N3

absorption maximum (in CC1CCCCC1): 438 nm
Compound: CC(C)(C)c1ccc2cc3c4cccc5cccc(c6cc(C(C)(C)C)cc(c2c1)c63)c54

absorption maximum (in C1CCOC1): 392 nm
Compound: N#Cc1c(N2CCCCC2)cc(-c2ccccc2)c2c1-c1ccccc1C2=O

absorption maximum (in CC#N): 396 nm | absorption maximum (in CCCCCC): 398 nm | absorption maximum (in CO): 396 nm | absorption maximum (in c1ccccc1): 396 nm
Compound: O=c1oc2c(ccc3ccccc32)nc1-c1ccccc1

absorption maximum (in ClC(Cl)Cl): 709 nm
Compound: Cc1ccc(/C2=c3\cc/c(o3)=C(\c3ccc(C)cc3)c3ccc([nH]3)-c3ccc4n3[B-](F)(F)[N+]3=C(C=CC3=C4c3cccs3)c3ccc2[nH]3)cc1

absorption maximum (in O): 416 nm
Compound: O=C(O)CCCCCn1c2ccc(Br)cc2c(=O)c2cc(S(=O)(=O)O)ccc21

absorption maximum (in C1CCOC1): 349 nm
Compound: Cc1cc(C2=C(c3cc(C)sc3C)S(=O)(=O)c3ccccc32)c(C)s1

absorption maximum (in C1CCCCC1): 427 nm | absorption maximum (in C1CCOC1): 430 nm | absorption maximum (in CC#N): 422 nm | absorption maximum (in CO): 424 nm | absorption maximum (in CS(C)=O): 436 nm | absorption maximum (in ClCCl): 422 nm | absorption maximum (in O): 390 nm
Compound: CC1=N/C(=C\c2ccccc2N)C(=O)N1C

absorption maximum (in ClCCl): 306 nm
Compound: c1ccc(-n2c(-c3ccc([Si](c4ccc(-c5nc6ccccc6n5-c5ccccc5)cc4)(c4ccc(-c5nc6ccccc6n5-c5ccccc5)cc4)c4ccc(-c5nc6ccccc6n5-c5ccccc5)cc4)cc3)nc3ccccc32)cc1

absorption maximum (in C1CCCCC1): 425.4 nm | absorption maximum (in CC1CCCCC1): 425.4 nm | absorption maximum (in CC#N): 454 nm and 447 nm | absorption maximum (in CCC(C)CC): 425 nm | absorption maximum (in CCCCCC): 425 nm | absorption maximum (in CCO): 460 nm | absorption maximum (in CCOC(C)=O): 439.4 nm
Compound: CCN(CC)c1ccc2cc(-c3nc4ccccc4s3)c(=O)oc2c1

absorption maximum (in C1COCCO1): 423 nm
Compound: COC(=O)c1ccc(/C=C2\C=C(c3ccc(OC)c(OC)c3)OC2=O)cc1

absorption maximum (in C1CCOC1): 332 nm
Compound: Cc1cc(C)c(C2=C(c3c(C)sc(-c4ccc(-c5nc(-c6ccccc6)c(-c6ccccc6)[nH]5)cc4)c3C)C(F)(F)C(F)(F)C2(F)F)s1

absorption maximum (in CO): 320 nm
Compound: Cc1ccc(-c2nc(-c3ccccc3O)[nH]c2-c2ccc(C)cc2)cc1

absorption maximum (in ClCCl): 378 nm
Compound: CCOC(=O)c1ccc(C2CC(c3cccc4ccccc34)=NN2c2ccc(Cl)cc2)cc1 (configuration not stated)

absorption maximum (in ClCCl): 339 nm
Compound: COc1ccc(-c2ccc(C(=O)NC(C)(C)C)c3c2ccc2c4ccccc4c4ccccc4c23)cc1

absorption maximum (in CO): 782 nm
Compound: CC1(C)C(/C=C/C2=C(Cl)C(=C/C=C3/N(CCCCCC(=O)O)c4ccccc4C3(C)C)/CCC2)=[N+](CCCCCC(=O)O)c2ccccc21

absorption maximum (in CC#N): 342 nm | absorption maximum (in CCCCCC): 336 nm
Compound: Nc1ccc(/C=C/c2cccnc2)cc1

absorption maximum (in C1CCOC1): 516 nm
Compound: Cc1ccc(C2=C3C=CC(Oc4ccccc4)=[N+]3[B-](F)(F)n3c(Oc4ccccc4)ccc32)cc1

absorption maximum (in C1CCOC1): 343 nm | absorption maximum (in CCCCCC): 338 nm | absorption maximum (in CCO): 344 nm | absorption maximum (in CS(C)=O): 346 nm
Compound: CCCCOc1ccc2cc(-c3ccc(C)cc3)c(=O)oc2c1
